For data set [1] the following is noted: Co-optima fuel property database, cited from earlier work; for Water Solubility: measured at 25° C.
Data set [2] is described as follows: ASTM D3703 test for hydroperoxides (peroxide number). As to conditions: silica column processed sample; testing range 0-50 mg/kg. It counts as physicochemical. On the procedure:
Potential polar contaminants, such as peroxides and hydrates, were removed from the neat prenol sample using a silica column following the protocol outlined by Mueller et al. (see, e.g., Mueller C J et al., “Diesel surrogate fuels for engine testing and chemical-kinetic modeling: compositions and properties,” Energy Fuels 2016; 30:1445-61). RON testing of this sample was conducted to confirm that these contaminants were not affecting the RON measurement. The sample containers were stored at 85% capacity and sealed with parafilm to limit peroxide formation after the silica column treatment; testing was performed within 10 days of the treatment. The peroxide number of the silica column treated sample (sample processed as described above) was tested by the ASTM […] method at SwRI. This method quantified the concentration hydroperoxides in a sample within the range of 0-50 mg/kg (ppm).

As for `O=C1CCCC1` [Cyclopentanone], in data set [1], the “DH Vap” value is listed as 504 kJ/kg, the “Energy Density” value is 30.2 mJ/L and the “Water Solubility” value is 61 mg/mL.

With `CCO` [Ethanol], in data set [1], the “DH Vap” value is listed as 919 kJ/kg and the “Energy Density” value was 20.2 mJ/L.

On to `CC(C)CO` [Isobutanol], for which, in data set [1], the “DH Vap” value is given as 685 kJ/kg and the “Energy Density” value is 26.6 mJ/L.

Take `CC(C)O` [Isopropanol]: in data set [1], the “DH Vap” value was 744 kJ/kg and the “Energy Density” value is 24.1 mJ/L.

Consider `CC(C)=CCO` [Prenol, 3-methyl-2-buten-1-ol], for which, in data set [1], the “DH Vap” value is on record as 512 kJ/kg and the “Water Solubility” value is 41 mg/mL. In data set [2], the “hydroperoxides (ASTM D3703)” value is “non-detect”.

n-propanol: in data set [1], the “DH Vap” value is listed as 789 kJ/kg and the “Energy Density” value is 24.7 mJ/L.
